pIC50: −log10 of the molar value. Some results are limits rather than exact numbers.

T1 sequence (P10636 1-441 isoform P10636-8): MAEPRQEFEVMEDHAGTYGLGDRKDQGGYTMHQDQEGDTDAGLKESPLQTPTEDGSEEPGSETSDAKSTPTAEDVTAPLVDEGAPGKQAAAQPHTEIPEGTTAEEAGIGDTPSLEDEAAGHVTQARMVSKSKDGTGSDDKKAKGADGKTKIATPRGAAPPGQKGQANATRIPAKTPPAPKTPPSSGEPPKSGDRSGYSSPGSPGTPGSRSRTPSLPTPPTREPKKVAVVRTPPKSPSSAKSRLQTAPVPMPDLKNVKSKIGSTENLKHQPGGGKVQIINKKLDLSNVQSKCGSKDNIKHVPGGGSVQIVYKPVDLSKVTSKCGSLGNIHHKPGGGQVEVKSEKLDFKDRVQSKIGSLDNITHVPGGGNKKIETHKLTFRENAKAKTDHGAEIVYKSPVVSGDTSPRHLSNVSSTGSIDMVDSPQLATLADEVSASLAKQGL
T1 sequence (O43761 whole entry): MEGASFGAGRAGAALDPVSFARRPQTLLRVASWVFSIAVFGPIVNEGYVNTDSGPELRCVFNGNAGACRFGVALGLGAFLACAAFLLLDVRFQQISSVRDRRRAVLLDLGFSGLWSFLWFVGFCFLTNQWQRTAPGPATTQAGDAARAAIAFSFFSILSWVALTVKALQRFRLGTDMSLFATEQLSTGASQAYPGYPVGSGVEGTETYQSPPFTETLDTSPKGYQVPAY

This test addresses T1, Tau-Synaptogyrin3 interaction (Homo sapiens, UniProt O43761+P10636).
T1 construct: expressed in transfected cells
In words: Cell-based split luciferase (NanoBit) protein complementary assay for Tau-Synaptogyrin3 interaction in stable cell line HEK293T-TK252-1E2. The following applies: HEK293T-TK252-1E2 cells, 48 hrs compound treatment, L/F value (luciferase activity/fluorescent intensity) compared to DMSO control. The method, then:
Live cell luciferase assay: Live cell luciferase activity was measured using NanoGlo® Live Cell Assay System (Cat# N2012. Promega, WI, USA), according to manufacturer's instruction. All microplate-based measurement was performed with BioTek Synergy H1 (Agilent. CA, USA).
For producing HEK293T-TK252 stable cell line for screening, BglII-linearized pTK252 was transfected to HEK293T cells. After 24 hrs transfection, the transfected cells were cultured in the culture media containing 1 µg/ml puromycin (10 mM in DMSO, Cat# J61278/ Alfa Aesar. ThermoFisher Korea, Seoul, Korea) for 9 days. Regular media change was performed in every 3 days with fresh puromycin of indicating concentration during the whole selection period. The selected cells were trypsinized and diluted to 5 cells/ml and seeded to 4x 96 well cell culture plates (100 µl/well), and cultured with the cell culture media containing 1 µg/ml puromycin for 11 days. 18 wells that contained only GFP-positive cells were selected for expansion, and cultured with the cell culture media containing 0.1-0.2 µg/ml puromycin for 14 days. 10 clones were discarded during the expansion due to emerging of non-GFP cells, and 8 clones were validated. The selected clone (1E2) was cultured with the cell culture media containing 0.5 µg/ml puromycin for further experiments.
3 µmol of 1,728 compounds were purchased from Otava Chemicals MB (Vilniaus, Lithuania), dissolved into 300 µl DMSO (10 mM) and stored at -80°C. 4x10^4 HEK293T-TK252-1E2 cells were seeded with 100 µl of the cell culture media into 96 white well cell culture plates (Cat# 30196. SPL, Seoul, Korea), 48 hrs prior to compound treatment. For 10 µM compound treatment, 10 mM compound stock was diluted to 50 µM with the cell culture media, and 25 µl of the diluted compound was added to the designated wells of the 96 well plates. For dose-response experiments, the amount of compounds for dilution was adjusted to fit the volume indicated above. After 48 hrs compound treatment, the cells were washed once with OptiMEM and live cell luciferase activity, fluorescent intensity and fluorescence area scan was measured.
1,728 compounds were treated at 10 µM to HEK293T-TK252-1E2 cells and incubated for 48 hrs. […] Single wash step with culture media without FBS was included before measurement to discard dead cells and to remove FBS that affects luciferase assay. […] Fluorescent intensity was taken for normalization, which is expected to be proportion to the cell number at the measuring point. L/F value which is luciferase activity normalized with fluorescent intensity (L/F = Luciferase activity/ Fluorescent intensity) was calculated for all measurements and compared to L/F value of DMSO controls to calculated the size of inhibitory effect. […] Fluorescence area scan (FA) performed right after luciferase activity and fluorescent intensity measurement, to validate total remaining fluorescent cells in a well as a proxy to the cellular toxicity. FA value was in proportion to WST assay results (data not shown), and average CV of triplicates of all measurements was 0.04.
61 compounds were further tested for dose-response profile, based on inhibitory effect that was measured by L/F value (<60%) and FA-based cell viability (>90%) at 10 µM compared to DMSO control. 10 compounds were considered as hit compounds through three times of reproduction.
Usually pIC50 stands for the IC50 on a negative log10 scale, so that one unit is a factor of ten. `Cc1ccc(C(=O)N2CCc3[nH]c4ccc(-c5ccc(C)cc5)cc4c3C2)cc1` [Formula 37, p-Tolyl(8-(p-Tolyl)-1,3,4,5-tetrahydro-2H-pyrido[4,3-b]indol-2-yl)methanone]: the pIC50 is above 5.52.
For the compound `Cc1ccccc1-c1ccc2[nH]c3c(c2c1)CN(C(=O)c1ccccc1)CC3` [Formula 23, Phenyl(8-(o-tolyl)-1,3,4,5-tetrahydro-2H-pyrido[4,3-b]indol-2-yl)methanone], the pIC50 is 4.92 to 5.52.
The result for `CCn1c2c(c3cc(-c4ccc(C)cc4)ccc31)CN(C(=O)c1ccccc1)CC2` [Formula 45, (5-ethyl-8-(p-tolyl)-1,3,4,5-tetrahydro-2H-pyrido[4,3-b]indol-2-yl)(phenyl)methanone] reads 4.92 to 5.52; that for `Cc1ccc(C(=O)N2CCc3[nH]c4ccc(-c5ccccc5)cc4c3C2)cn1` [Formula 5, (6-methylpyridin-3-yl)(8-phenyl-1,3,4,5-tetrahydro-2H-pyrido[4,3-b]indol-2-yl)methanone], 4.92 to 5.52; that for `O=C(c1cccnc1)N1CCc2[nH]c3cc(-c4ccccc4)ccc3c2C1` [Formula 35, (7-phenyl-1,3,4,5-tetrahydro-2H-pyrido[4,3-b]indol-2-yl)(pyridin-3-yl)methanone], 4.92 to 5.52.
The result for `Nc1ccc(-c2ccc3[nH]c4c(c3c2)CN(C(=O)c2ccccc2)CC4)cc1` [Formula 72, (8-(4-Aminophenyl)-1,3,4,5-tetrahydro-2H-pyrido[4,3-b]indol-2-yl)(phenyl)methanone] reads above 5.52; that for `O=C(c1cnccn1)N1CCc2[nH]c3ccc(-c4ccccc4)cc3c2C1` [Formula 7, (8-phenyl-1,3,4,5-tetrahydro-2H-pyrido[4,3-b]indol-2-yl)(pyrazin-2-yl)methanone], 4.92 to 5.52; that for `O=C(c1ccccc1)N1CCc2[nH]c3ccc(-c4cccnc4)cc3c2C1` [Formula 42, Phenyl(8-(pyridin-3-yl)-1,3,4,5-tetrahydro-2H-pyrido[4,3-b]indol-2-yl)methanone], 4.60 to 4.92.
The result for `Cc1ccc(-c2ccc3[nH]c4c(c3c2)CN(C(=O)c2cccc(C)c2)CC4)cc1` [Formula 38, m-Tolyl(8-(p-Tolyl)-1,3,4,5-tetrahydro-2H-pyrido[4,3-b]indol-2-yl)methanone] reads 4.60 to 4.92; that for `Cc1ccc(-c2ccc3[nH]c4c(c3c2)CN(C(=O)c2ccc(C)nc2)CC4)cc1` [Formula 40, (6-methylpyridin-3-yl)(8-(p-tolyl)-1,3,4,5-tetrahydro-2H-pyrido[4,3-b]indol-2-yl)methanone], above 5.52; that for `Cc1ccccc1-c1ccc2[nH]c3c(c2c1)CN(C(=O)c1cccc2c1ccn2C)CC3` [Formula 24, (1-methyl-1H-indol-4-yl)(8-(o-tolyl)-1,3,4,5-tetrahydro-2H-pyrido[4,3-b]indol-2-yl)methanone], 4.92 to 5.52.
`Cc1cncc(C(=O)N2CCc3[nH]c4ccc(-c5ccccc5C)cc4c3C2)c1` [Formula 22, (5-methylpyridin-3-yl)(8-(o-tolyl)-1,3,4,5-tetrahydro-2H-pyrido[4,3-b]indol-2-yl)methanone]: the pIC50 is 4.92 to 5.52.
Turning to `Cc1ccc(C(=O)N2CCc3[nH]c4ccc(-c5ccc(C#N)cc5)cc4c3C2)cc1` [Formula 52], the pIC50 is above 5.52.
The figure for `Cc1ccc(C(=O)N2CCc3[nH]c4ccc(-c5ccc(C6CCCCC6)cc5)cc4c3C2)cn1` [Formula 67, (8-(4-Cyclohexylphenyl)-1,3,4,5-tetrahydro-2H-pyrido[4,3-b]indol-2-yl)(6-methylpyridin-3-yl)methanone] is 4.92 to 5.52; for `Cc1ccc(C(=O)N2CCc3[nH]c4ccc(-c5cccc(C#N)c5)cc4c3C2)cn1` [Formula 57, 3-(2-(6-Methylnicotinoyl)-2,3,4,5-tetrahydro-1H-pyrido[4,3-b]indol-8-yl)benzonitrile] it is 4.92 to 5.52; for `O=C(c1ccccc1)N1CCc2[nH]c3ccc(Nc4ccc(Cl)cc4)cc3c2C1` [Formula 33, (8-((4-chlorophenyl)amino)-1,3,4,5-tetrahydro-2H-pyrido[4,3-b]indol-2-yl)(phenyl)methanone] it is 4.92 to 5.52.
The figure for `N#Cc1ccccc1-c1ccc2[nH]c3c(c2c1)CN(C(=O)c1ccccc1)CC3` [Formula 61, 2-(2-benzoyl-2,3,4,5-tetrahydro-1H-pyrido[4,3-b]indol-8-yl)benzonitrile] is 4.92 to 5.52; for `COc1ccc(C(=O)N2CCc3[nH]c4ccc(-c5ccc(C)cc5)cc4c3C2)cc1` [Formula 39, (4-methoxyphenyl)(8-(p-tolyl)-1,3,4,5-tetrahydro-2H-pyrido[4,3-b]indol-2-yl)methanone] it is 4.92 to 5.52; for `Cc1ccc(-c2ccc3[nH]c4c(c3c2)CN(C(=O)c2ccnc(C)c2)CC4)cc1` [Formula 41, (2-methylpyridin-4-yl)(8-(p-tolyl)-1,3,4,5-tetrahydro-2H-pyrido[4,3-b]indol-2-yl)methanone] it is 4.92 to 5.52.
The result for `O=C(c1cccnc1)N1CCc2[nH]c3ccc(-c4ccccc4)cc3c2C1` [Formula 2, (8-phenyl-1,3,4,5-tetrahydro-2H-pyrido[4,3-b]indol-2-yl)(pyridin-3-yl)methanone] reads 4.92 to 5.52.
Consider `Cc1ccc(-c2ccc3[nH]c4c(c3c2)CN(C(=S)Nc2ccc(C#N)cc2)CC4)cc1` [Formula 77, N-(4-cyanophenyl)-8-(p-tolyl)-1,3,4,5-tetrahydro-2H-pyrido[4,3-b]indole-2-carbothioamide], for which the negative-log IC50 (pIC50) was 4.60 to 4.92.
Regarding `N#Cc1cccc(-c2ccc3[nH]c4c(c3c2)CN(C(=O)c2ccccc2)CC4)c1` [Formula 58, 3-(2-benzoyl-2,3,4,5-tetrahydro-1H-pyrido[4,3-b]indol-8-yl)benzonitrile], the pIC50 was 4.92 to 5.52.
Consider `Cc1ccccc1-c1ccc2[nH]c3c(c2c1)CN(C(=O)c1cccnc1)CC3` [Formula 20, Pyridin-3-yl(8-(o-tolyl)-1,3,4,5-tetrahydro-2H-pyrido[4,3-b]indol-2-yl)methanone], for which the pIC50 is 4.92 to 5.52.
The result for `O=C(c1cccnc1)N1CCc2[nH]c3ccc(-c4ccc(F)cc4)cc3c2C1` [Formula 65, (8-(4-fluorophenyl)-1,3,4,5-tetrahydro-2H-pyrido[4,3-b]indol-2-yl)(pyridin-3-yl)methanone] reads above 5.52; that for `O=C(c1ccccc1)N1CCc2[nH]c3ccc(-c4ccc(F)cc4)cc3c2C1` [Formula 64, (8-(4-fluorophenyl)-1,3,4,5-tetrahydro-2H-pyrido[4,3-b]indol-2-yl)(phenyl)methanone], above 5.52; that for `O=C(c1ccccc1)N1CCc2[nH]c3ccc(-c4ccc(Cl)cc4)cc3c2C1` [Formula 70, (8-(4-chlorophenyl)-1,3,4,5-tetrahydro-2H-pyrido[4,3-b]indol-2-yl)(phenyl)methanone], above 5.52.
The result for `Cc1ccc(-c2ccc3c(c2)c2c(n3C)CCN(C(=O)c3cccnc3)C2)cc1` [Formula 44, (5-methyl-8-(p-tolyl)-1,3,4,5-tetrahydro-2H-pyrido[4,3-b]indol-2-yl)(pyridin-3-yl)methanone] reads above 5.52; that for `COc1ccc(C(=O)N2CCc3[nH]c4ccc(-c5ccccc5)cc4c3C2)cc1` [Formula 17, (4-methoxyphenyl)(8-phenyl-1,3,4,5-tetrahydro-2H-pyrido[4,3-b]indol-2-yl)methanone], 4.92 to 5.52.
The figure for `Cc1ccc(C(=O)N2CCc3[nH]c4ccc(-c5ccccc5C#N)cc4c3C2)cn1` [Formula 60, 2-(2-(6-Methylnicotinoyl)-2,3,4,5-tetrahydro-1H-pyrido[4,3-b]indol-8-yl)benzonitrile] is 4.92 to 5.52; for `Cc1cncc(C(=O)N2CCc3[nH]c4ccc(-c5ccccc5)cc4c3C2)c1` [Formula 4, (5-methylpyridin-3-yl)(8-phenyl-1,3,4,5-tetrahydro-2H-pyrido[4,3-b]indol-2-yl)methanone] it is 4.92 to 5.52; for `Cc1ccc(-c2ccc3[nH]c4c(c3c2)CN(C(=O)c2cccnc2)CC4)cc1` [Formula 29, Pyridin-3-yl(8-(p-tolyl)-1,3,4,5-tetrahydro-2H-pyrido[4,3-b]indol-2-yl)methanone] it is above 5.52.

The values are drawn from EP4682146A1, “COMPOSITION INCLUDING NOVEL PYRIDOINDOLE DERIVATIVE COMPOUND AS ACTIVE INGREDIENT FOR PREVENTION OR TREATMENT OF NEURODEGENERATIVE DISEASES” (Neurotarge Co., Ltd., priority 2023, dated 2024).
